Test results from publication PMC7618454, “Interleukin-1 receptor-associated kinase 4 (IRAK4) is a critical regulator of inflammatory signalling through toll-like receptors 4 and 7/8 in murine and human lungs” (British journal of pharmacology, 2024).

Assays:
[1] = biological target: T1, interleukin-1 receptor-associated kinase 4 (IRAK4) (Mus musculus, UniProt Q8R4K2); assay: IMAP fluorescence polarization kinase assay, […] ATP; type: biochemical
T1 construct: kinase domain, aa 153–459, N-terminal His6-tagged
T1 sequence (Q8R4K2 153-459): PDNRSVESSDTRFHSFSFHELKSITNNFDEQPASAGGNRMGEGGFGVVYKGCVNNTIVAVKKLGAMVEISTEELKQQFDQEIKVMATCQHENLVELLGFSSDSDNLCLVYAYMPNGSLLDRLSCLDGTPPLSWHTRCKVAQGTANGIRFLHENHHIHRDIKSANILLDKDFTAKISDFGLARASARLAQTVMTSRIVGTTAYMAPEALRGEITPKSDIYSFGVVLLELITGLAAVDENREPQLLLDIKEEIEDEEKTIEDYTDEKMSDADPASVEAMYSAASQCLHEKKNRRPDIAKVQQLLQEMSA

[2] = biological target: T2, interleukin-1 receptor-associated kinase 4 (IRAK4) (Homo sapiens, UniProt Q9NWZ3); assay: IMAP fluorescence polarization kinase assay, […] ATP; type: biochemical
T2 construct: kinase domain, aa 153–460, N-terminal His6-tagged
T2 sequence (Q9NWZ3 153-460): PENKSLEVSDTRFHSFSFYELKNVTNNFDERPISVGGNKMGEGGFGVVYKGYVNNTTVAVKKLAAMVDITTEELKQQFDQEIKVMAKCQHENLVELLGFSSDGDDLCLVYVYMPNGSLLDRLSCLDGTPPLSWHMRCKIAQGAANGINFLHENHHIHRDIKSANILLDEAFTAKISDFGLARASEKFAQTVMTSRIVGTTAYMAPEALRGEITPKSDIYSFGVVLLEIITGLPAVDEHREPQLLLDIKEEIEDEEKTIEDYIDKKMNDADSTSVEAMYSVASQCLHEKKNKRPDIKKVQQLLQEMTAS

## BI1543673
[1]
  IC50: ~2 nM
[2]
  IC50: ~2 nM
